Results from patent US9549884B2, “Retinoid derivatives and process for their preparation” (SELEGO AB, priority 2013, dated 2017).
≈ marks a conversion by molar mass, not a printed value.

Columns and labels:
[1] = system: BALB/c 3T3 cells; test: In vitro phototoxicity test, neutral red uptake with and without UVA; assay type: cell-based
Experimental: In the present study the phototoxicity effects of compound (1a) were analyzed by dissolving the test item in DMSO and diluting to 1.100 ratio with Earle's balanced test solution. BALB/C 3T3 cells were treated for 1 h with different concentrations of the test solution at 37±1±° C. and further 50 min in absence and in presence of a non-toxic dose of UVA light, respectively. One day after treatment cytotoxicity was analyzed as a measure of reduction of neutral red uptake and compared to the controls. […] However, since the calculated mean photo effect (MPE) is <0.1 (0.027 in a rangefinder experiment; 0.056 in the main experiment) the test item is classified as non-toxic.

[2] = system: reconstituted three-dimensional human epidermis model (EPISKIN-SM); test: In vitro skin irritation test, EPISKIN-Standard Model, MTT; assay type: cell-based
Experimental: The skin irritant potential of compound (1a) was analyzed with a reconstituted three-dimensional human epidermis model, the EPISKIN-Standard Model® (EPISKIN-SM®) as a replacement for the Draize Skin Irritation Test (OECD TG 404) to distinguish between UN GHS “Category 2” skin irritating test substances and not categorized test substances (“No Category”) which may be considered as non-irritant. Hereby, the test item was applied topically. Cytotoxicity is expressed as reduction of mitochondrial dehydrogenase activity measured by formazan production from MTT after a 15 min exposure and 42 h post incubation period and compared to those of the concurrent negative controls.
The relative mean tissue viability after 15 min of exposure and 42 h post incubation was >50%. The test item, compound (1a) is therefore classified as “non-irritant” in accordance with UN GHS “No Category”.

[3] = Storage stability study checked by HPLC; assay type: physicochemical; settings: 0-4° C., 40-90% humidity
Experimental: A comparison in stability between Compound (Ia) and the substance retin-15-yl ester retinoic acid (CAS No. 15498-86-9) was outlined by performing HPCL analysis of the two compounds throughout an extended storage period.
The stability study was performed at 0-4° C. and 40-90% humidity. The samples of each product, packed in polyethylene bag inside a closed polyethylene box, were maintained under the above mentioned condition for the given time (see below). The stability of the product was checked by HPLC analysis using the method reported here below: A Young Lin YL9100 HPLC System was equipped with a variable volume automatic injector and a YL-Clarity data system. A Capcellpack UG 120 C-18, 150×4.6 mm, 5 μm, column from Agilent Technologies was used with a column temperature of 25±2° C., a flow rate of 1.5 ml/min, an injection volume of 10 μl, a wavelength of 326 nm. The mobile phase was A: water containing 0.1% acetic acid; B: acetonitrile containing 0.1% acetic acid; C: methanol containing 0.1% acetic acid; and D: isopropanol. For a run time of 40 min the gradient was: […]
The Working Solution: dissolve the sample under stability study in acetonitrile in a concentration of 1 mg/ml and inject as it.
With reference to FIG. 1 and FIG. 2, the HPLC peaks with the highest area percentage (retention time 26.1 for Compound (1a) and 12.2 for retin-15-yl ester retinoic acid).

[4] = In vitro skin corrosion membrane barrier test (CORROSITEX Assay)
Experimental: The skin corrosive potential of compound (1a) was analyzed. Corrosive chemicals are dependent on their grade of corrosivity able to break through the bio-barrier membrane employed in the “in vitro Membrane barrier test (CORROSITEX® Assay)” (see EVCAM (2000) ESAC statement on the application of the Corrositex® assay for skin corrosivity testing. The test system is composed of a synthetic bio-barrier that is placed on a chemical detection system (CDS). The time necessary to activate the CDS allows to distinguish between Corrosive© and non-corrosive (NC) test substances. Hereby the test item was placed atop the bio-barrier membranes. The CDS activation was assessed as a color change or a change in consistency. […] Compound (1a) accordingly was classified as non-corrosive.

[5] = Highest soluble concentration in DMSO; assay type: physicochemical; settings: organic solvent or mixture

Row | Compound | phototoxicity classification ([1]; MPE <0.1) | cytotoxic effect with UVA radiation ([1]; in case of UVA radiation) | mean photo effect (MPE) ([1]; main experiment) | mean photo effect (MPE) ([1]; rangefinder experiment) | relative mean tissue viability ([2]; 15 min exposure, 42 h post incubation) [%] | skin irritation classification (UN GHS) ([2]; UN GHS No Category) | stability (HPLC) ([3]; after about two months) | skin corrosivity classification [4] | mean time required to activate the CDS ([4]; Corrositex bio-barrier membrane) [min] | solubility [5] [µg/mL] | decrease of purity with respect to the starting time (HPLC) ([3]; in one month) [%]
1 | CC1=C(/C=C/C(C)=C/C=C/C(C)=C/C(=O)OCCNC(=O)c2cccnc2)C(C)(C)CCC1 [Compound (1a), 2-(nicotinamido)-ethyl retinoate] | non-toxic | slight cytotoxic effect | 0.056 | 0.027 | > 50 | non-irritant | practically stable | non-corrosive | > 60 | 2000 (≈ 4.46 mM) | 
2 | CC1=C(/C=C/C(C)=C/C=C/C(C)=C/COC(=O)/C=C(C)/C=C/C=C(C)/C=C/C2=C(C)CCCC2(C)C)C(C)(C)CCC1 [retin-15-yl ester retinoic acid, reference compound] |  |  |  |  |  |  |  |  |  |  | 5
